The structures appear in SMILES notation. Activity calls are given as the source filed them. The rule behind the calls is not given here.

The target in assay [1] is Baculoviral IAP repeat-containing protein 2 (Homo sapiens) (UniProt Q13490). Nature of the assay: Binding affinity to human BIR3 domain of cIAP1 at 150 uM after 30 mins by photoaffinity labeling assay in presence of (S)-2-((2S,3R)-3-Amino-2-hydroxy-4-phenyl-butyrylamino)-4-methyl-pentanoic acid methyl ester.
The target is the same in assay [2]. The experiment in a line: Binding affinity to human BIR3 domain of cIAP1 by photoaffinity labeling assay in presence of (S)-2-((2S,3R)-3-Amino-2-hydroxy-4-phenyl-butyrylamino)-4-methyl-pentanoic acid methyl ester.
For assay [3] the target is unchanged. The experiment in a line: Binding affinity to human BIR3 domain of cIAP1 by fluorescence polarization assay.

Baculoviral IAP repeat-containing protein 2 (Homo sapiens), sequence (Q13490 whole entry, looked up, the tested form may be a part): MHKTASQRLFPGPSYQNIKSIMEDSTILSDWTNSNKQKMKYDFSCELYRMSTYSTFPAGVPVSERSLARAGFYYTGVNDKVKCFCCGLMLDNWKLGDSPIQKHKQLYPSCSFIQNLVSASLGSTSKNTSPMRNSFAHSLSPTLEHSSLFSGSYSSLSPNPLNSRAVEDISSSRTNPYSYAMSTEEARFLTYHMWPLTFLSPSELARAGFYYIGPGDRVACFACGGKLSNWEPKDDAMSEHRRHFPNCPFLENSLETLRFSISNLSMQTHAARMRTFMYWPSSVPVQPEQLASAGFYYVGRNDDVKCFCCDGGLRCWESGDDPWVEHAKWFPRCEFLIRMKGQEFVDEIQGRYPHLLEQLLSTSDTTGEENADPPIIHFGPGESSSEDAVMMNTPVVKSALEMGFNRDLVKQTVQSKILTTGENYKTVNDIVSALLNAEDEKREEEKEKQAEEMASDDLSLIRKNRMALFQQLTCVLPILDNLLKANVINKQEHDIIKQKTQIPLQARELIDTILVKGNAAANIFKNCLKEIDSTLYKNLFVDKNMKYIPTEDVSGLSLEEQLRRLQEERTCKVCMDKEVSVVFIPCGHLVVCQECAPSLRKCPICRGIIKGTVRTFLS

`CC(C)C[C@H](NC(=O)[C@@H](O)[C@H](N)Cc1ccccc1)C(=O)OCCNS(=O)(=O)c1cccc2c(N=[N+]=[N-])cccc12`: in assay [1], the outcome was Active.
For `CC(C)C[C@H](NC(=O)[C@@H](O)[C@H](N)Cc1ccccc1)C(=O)OCCNS(=O)(=O)c1cccc2c(N(C)C)cccc12`, the outcome in assay [2] and in assay [3] was Active.

Source of the values: ChEMBL document CHEMBL1150321.
